Consider five compounds from US10851097B2, “4,5,6,7-tetrahydro-1H-imidazo[4,5-c]pyridine and 1,4,5,6,7,8-hexahydroimidazo[4,5-d]azepine derivatives as janus kinase inhibitors” (Topivert Pharma Limited, priority 2015, dated 2020).

For orientation: IC50 means the concentration that inhibits the measured activity by half. Higher therefore signals a need for much substance. The term Cmax denotes the maximum level reached in the sampled fluid or tissue.

Each structure is given as a SMILES string. ≈ marks a conversion by molar mass, not a printed value. Like-named read-outs stand apart in the source and are kept apart here.

Data set [1] can be described thus: Solubility in fasted-state simulated colonic fluid (FaSSCoF) at pH 6.5. It counts as physicochemical. Conditions: 25 °C, pH 6.5, fassgf or other biorelevant, thermodynamic from solid, pH 6.5, 25° C. As to the method:
The solubilities of compounds of the invention in FaSSCoF at pH 6.5 are determined using a modification of a previously-reported procedure (Vertzoni, M., et al. Pharm. Res. 2010, 27, 2187-2196). In place of the bile salt extract employed in the original procedure (which extract is no longer available), the modified procedure uses a mixture of sodium taurochlorate (0.15 g), glycocholic acid (0.15 g), ursodeoxycholic acid (0.05 g), cholic acid (0.05 g), and glycodeoxycholic acid (0.05 g). These five bile acids are ground together with a mortar and pestle to produce a fine white powder that is incorporated into the FaSSCoF, as outlined below.
Tris(hydroxymethyl)aminomethane (Tris; 0.275 g) and maleic acid (0.44 g) are dissolved in water (35 mL) to give a solution whose pH is adjusted to 6.5 by treatment with 0.5M NaOH (ca. 12 mL). The solution is then made up to 50 mL with water. A portion of this Tris/maleate buffer solution (ca. 25 mL) is added to a 0.5 L round-bottomed flask, before being treated with 0.00565 g of the bile acid mixture described above. Solutions of phosphatidylcholine (0.0111 g) in DCM (0.15 mL) and palmitic acid (0.0013 g) in DCM (0.15 mL) are added, then the organic solvent is evaporated off under reduced pressure at 40° C. until a clear solution, with no perceptible DCM odour, is achieved. The volume of the evaporated solution is adjusted to 50 mL by addition of the remainder of Tris/maleate buffer, then BSA (0.115 g) is added, before being dissolved by gentle agitation.
Test compounds are suspended in the pH 6.5 FaSSCoF medium to give a maximum final concentration of 2-10 mg/mL. The suspensions are equilibrated at 25° C. for 24 h, before being filtered through a glass fibre C filter. The filtrates are then diluted as appropriate for injection and quantification by HPLC with reference to a standard. Different volumes of the standard, diluted and undiluted sample solutions are injected and the solubilities are calculated using the peak areas determined by integration of the peak found at the same retention time as the principal peak in the standard injection.

The subject of data set [2] is CD3/IL2 stimulated PBMC cells. The data set can be described thus: IFNγ release from CD3/IL2 stimulated PBMC cells (assay (a)). It counts as cell-based. To be noted: Homo sapiens, CD3/IL2 stimulation, 48 h, ELISA. Here is the method:
(a) IFNγ Release from CD3/IL2 Stimulated PBMC Cells
PBMCs from healthy subjects are separated from whole blood using a density gradient (Lymphoprep, Axis-Shield Healthcare). Cells are added to a 96 well plate, and compound at the desired concentration added 2 hours prior to stimulation with a mixture of monoclonal antibody to CD3 (1 μg/ml, eBioscience) and human recombinant IL2 (10 ng/ml, Peprotech). After 48 hours incubation under normal tissue culture conditions, supernatants are collected and IFNγ release determined by Sandwich ELISA (Duo-set, R&D System). The IC50 is determined from the dose response curve.
(In general: In an ELISA, binding on a coated surface is turned into a signal by an enzyme label.)

The subject of the next data set is Jurkat cells. The data set can be described thus: Cell cytotoxicity assay in Jurkat cells (assay (c)). It counts as cell-based, human. To be noted: 24 h, propidium iodide, normalised to DMSO control. Here is the method: (c) Cell Cytotoxicity Assay
1×10^5 Jurkat cells (immortalised human T lymphocytes) are added to the appropriate number of wells of a 96 well plate in 100 μL of media (RPMI supplemented with 10% foetal bovine serum). 1 μL of DMSO control (final concentration 1.0% v/v) or test compound (final concentration 20, 5 or 1 μg/mL) is added to the wells and incubated at 37° C., 5% CO2. After 24 hours, the plate is centrifuged at 1200 rpm for 3 minutes and the supernatant discarded. Cells are then resuspended in 150 μL (final concentration 7.5 μg/mL) of propidium iodide (PI) in PBS and incubated at 37° C., 5% CO2 for 15 minutes. After 15 minutes, cells are analysed by flow cytometry (BD accuri) using the FL3 window. The % viability is calculated as the % of cells that are PI negative in the test wells normalised to the DMSO control.

Data set [3] can be described thus: Systemic pharmacokinetics and total colon tissue distribution after single oral administration in mice. It counts as in vivo, male C57BL/6 mice. To be noted: oral 10 mg/kg. As to the method: Studies were conducted by Sai Life Sciences (Hinjewadi, Pune, India) to investigate the systemic pharmacokinetics and total colon tissue distribution of compounds of the invention following a single oral administration in male C57BL/6 mice.
A group of twenty four male mice were administered with a solution of test compound formulated at a dose of 10 mg/10 mL/kg in aqueous hydroxypropyl-β-cyclodextrin (20% w/v in water). Blood samples (approximately 60 μL) were collected from retro-orbital plexus of each mouse under light isoflurane anaesthesia such that the samples were obtained at 0.5, 1, 2, 4, 6, 8, 12 and 24 hr. The blood samples were collected from a set of three mice at each time point in a labeled micro centrifuge tube containing K2EDTA as anticoagulant. Plasma samples were separated by centrifugation at 4000 rpm for 10 min and stored below −70° C. until bioanalysis. After collection of blood sample, animals were humanely euthanized by carbon dioxide asphyxiation to collect total colon tissues. The colons were flushed with cold PBS (pH7.4) to remove contents. The total colon tissues were homogenized with cold PBS (pH7.4) of twice the weight of colon tissue and stored below −70° C. Total volume was three times the total colon tissue weights. All samples were processed for analysis by protein precipitation using acetonitrile and analyzed with a fit-for-purpose LC-MS/MS method. Pharmacokinetic parameters were calculated using the non-compartmental analysis tool of Phoenix WinNonlin® (Version 6.3).

[4] abbreviates: Run 1, read-out: pH 6.5 FaSSCoF Solubility Run 1.
[5] abbreviates: Run 2, read-out: pH 6.5 FaSSCoF Solubility Run 2.

In the case of `CCc1cc(O)c(F)cc1-c1ccc2c(-c3nc4c([nH]3)CCN(C(=O)c3cnc(N(C)C5CCN(C)CC5)cn3)C4)n[nH]c2c1` [Example 1, (2-(6-(2-Ethyl-5-fluoro-4-hydroxyphenyl)-1H-indazol-3-yl)-1,4,6,7-tetrahydro-5H-imidazo[4,5-c]pyridin-5-yl)(5-(methyl(1-methylpiperidin-4-yl)amino)pyrazin-2-yl)methanone], the solubility thermodynamic at 24 h in data set [1] (setting [4]) and in data set [1] (setting [5]) was 10 µg/mL (≈ 16.4 µM) in each case. Moreover, the IC50 in data set [2] stood at 22.6 nM. Besides, the “% viability at 1 μg/mL” value with Jurkat cells amounted to 14%.
On to `CCc1cc(O)c(F)cc1-c1ccc2c(-c3nc4c([nH]3)CCN(C(=O)c3cnc(N5CCC[C@H]5CO)cn3)C4)n[nH]c2c1` [Example 2(h), (S)-(2-(6-(2-ethyl-5-fluoro-4-hydroxyphenyl)-1H-indazol-3-yl)-1,4,6,7-tetrahydro-5H-imidazo[4,5-c]pyridin-5-yl)(5-(2-(hydroxymethyl)pyrrolidin-1-yl)pyrazin-2-yl)methanone], for which the solubility thermodynamic at 24 h was 30 µg/mL (≈ 51.5 µM) in data set [1] (setting [4]) and 40 µg/mL (≈ 68.7 µM) in data set [1] (setting [5]). Further, in data set [2], it took 12.1 nM to reach half-maximal inhibition (IC50). In addition, the “% viability at 1 μg/mL” value in the data set with Jurkat cells was 56%.
As to `CCc1cc(O)c(F)cc1-c1ccc2c(-c3nc4c([nH]3)CCN(C(=O)c3cnc(N5C[C@H]6CN(C)C[C@H]6C5)cn3)C4)n[nH]c2c1` [Example 2(t), (2-(6-(2-ethyl-5-fluoro-4-hydroxyphenyl)-1H-indazol-3-yl)-6,7-dihydro-1H-imidazo[4,5-c]pyridin-5(4H)-yl)(5-((3aR,6aS)-5-methylhexahydropyrrolo[3,4-c]pyrrol-2(1H)-yl)pyrazin-2-yl)methanone], in data set [2], half-maximal inhibition (IC50) was put at 15.2 nM. For the same compound, the “% viability at 1 μg/mL” value in the data set with Jurkat cells was determined as 18%.
Regarding `CCc1cc(O)c(F)cc1-c1ccc2c(-c3nc4c([nH]3)CCN(C(=O)c3cnc(N(C)CCN5CCCS5(=O)=O)cn3)C4)n[nH]c2c1` [Example 2(v), (5-((2-(1,1-dioxidoisothiazolidin-2-yl)ethyl)(methyl)amino)pyrazin-2-yl)(2-(6-(2-ethyl-5-fluoro-4-hydroxyphenyl)-1H-indazol-3-yl)-6,7-dihydro-1H-imidazo[4,5-c]pyridin-5(4H)-yl)methanone], the IC50 in data set [2] was found to be 7.5 nM. In addition, the “% viability at 1 μg/mL” value with Jurkat cells was 82%.
For `CCc1cc(O)c(F)cc1-c1ccc2c(-c3nc4c([nH]3)CCN(C(=O)c3cnc(N5CCCCC5)cn3)C4)n[nH]c2c1` [Reference Compound, reference compound], the AUC(0-t) in data set [3] (male, C57BL/6, mouse, plasma, read-out: AUC0-24 h P (plasma)) is 368 ng·h/mL. Moreover, the Cmax in data set [3] (male, C57BL/6, mouse, plasma, read-out: Cmax P (plasma)) turned out to be 114 ng/mL; in data set [3] (male, C57BL/6, mouse, total colon tissue, total colon, read-out: Cmax C (total colon)), 3230 ng/g. The “AUC0-24 h C (total colon)” value in data set [3] (total colon) is given as 43,739 h · ng/g. The solubility thermodynamic at 24 h in data set [1] (setting [4]) and in data set [1] (setting [5]) was 6 µg/mL (≈ 10.6 µM) each time. Moreover, in data set [2], the midpoint of inhibition, the IC50, lay at 81.3 nM. Also, the “% viability at 1 μg/mL” value with Jurkat cells is on record as 49%.
